Results: US12421276B2 (priority 2016, dated 2025)
Several values for one entry are separate records, joined by “and”; a condition that tells them apart may be missing. Equal values may be shown once. Read-outs that look alike come from different tables or passages of the source. Where a SMILES comes first, the peptide text is derived from it. [ ]: non-standard residue; d: D form. The star is where a group is joined. ξ: configuration not given here. ξpY = NC(Cc1ccc(OP(=O)(O)O)cc1)C(=O)O; Ile(3ξ) = CCC(C)[C@H](N)C(=O)O; Hexanoyl = CCCCCC(=O)*; Ahx = NCCCCCC(=O)O

Assays:
[1] = Metabolic stability in simulated intestinal fluid (SIF), pH 6.8, with or without pancreatin; assay type: in vitro ADME; settings: 5 μM, 37° C.
Method: (§1) Metabolic Stability in SIF and SGF (Simulated Intestinal and Gastric Fluid)
Buffer 3=SIF without enzyme
Buffer 4=SIF with 1% pancreatin
(§2) SIF was prepared freshly with 8.7 mM NaOH, 28.65 mM NaH2PO4, 105.85 mM NaCl, with a final pH of 6.8. SGF was prepared freshly with 34.2 mM NaCl, with a final pH of 1.2. Enzymes such as pepsin or pancreatin were added to some buffers. Human and rat plasma (K2 EDTA) were purchased from BioreclamationIVT.
(§3) Compounds were dissolved as 1.5 mM DMSO stocks. Compounds were transferred to SIF, SGF, or plasma at 5 μM on a 96-well deep well plate. After mixing, samples were transferred to several 96-well plates (25 μL/well), and incubated at 37° C. The extent of metabolism was calculated as the disappearance of the test compound, compared to the 0-min control reaction incubations. Candesartan Cilexetil and omeprazole were included as positive controls for SIF and SGF, respectively, to verify assay performance.
(§4) At each of the time points, 150 μL of quench solution (100% acetonitrile with 0.1% formic acid) with internal standard (bucetin for positive ESI mode and warfarin for negative ESI mode) was transferred to each well. Plates were sealed and centrifuged at 4° C. for 15 minutes at 4000 rpm. The supernatant was transferred to fresh plates for LC/MS/MS analysis.
(§5) Elution conditions are detailed in the table below.
(§6) Initial rates of the clearance of test compounds were calculated using linear regression of semi-log plot of % remaining of compounds versus time. The elimination rate constant (equals to −slope) of the linear regression was then used to determine t½ values.

[2] = Metabolic stability in simulated gastric fluid (SGF), pH 1.2, with or without pepsin; assay type: in vitro ADME; settings: 5 μM, 37° C.
Method: as §1
Buffer 1=SGF without enzyme
Buffer 2=SGF with 0.32% pepsin
as §2, §3, §4, §5, §6

[3] = assay type: in vivo, rat
Method: • 1. Eight (8) male JVC SD rats (purchased from Charles River Lab) were monitored daily for body condition and health status during the 3-5 days acclimation period. The rats were randomly assigned into […] (n=4). • 2. […] The dosed rats were individually placed into a metabolic cage, and have access to food and water at all times. The urine from each rat was collected daily from the metabolic cages, and kept in dry ice. • 4. At predose (0 min), 5 min, 15 min, 30 min, 1 hr, 2 hr, 8 hr, and 24 hr post dosing, approximately 200 ul blood samples were collected from each rat and transferred to EDTA tubes. • 5. The blood samples in EDTA vials were centrifuged at 4° C. and 6,000 rpm for 10 minutes to generate ˜100 μl of plasma per sample. Blood samples were processed as quickly as possible and remain no longer than 2 min at room temperature and no longer than 15 minutes at 4° C. prior to processing. • 6. All samples were transferred for bioanalytic assay using LCMS

Caco-2 cells = experiment: Caco-2 permeability study with or without P-gp inhibitor GF120918; settings: for Abs. Quotient: (Papp A-B with inhibitor − without inhibitor)/Papp A-B with inhibitor; for Caco-2 Cells Permeability Recovery Rate: 1 hr, pH 7.4
[4] = Rat, PO, 10 mg/kg equiv., n = 4, analyte: Parent (BASE STRUCTURE)
[5] = Rat, PO, 10 mg/kg equiv., n = 4, analyte: Prodrug
[6] = rat, dosed as prodrug, 10 mg/kg equivalent of Base Structure, analyte Parent (Base Structure), Average
[7] = rat, dosed as prodrug, 10 mg/kg equivalent of Base Structure, analyte Parent (Base Structure), Combined (average ± std. dev.)
[8] = rat, dosed as prodrug, 10 mg/kg equivalent of Base Structure, analyte Parent (Base Structure), individual animals, 10 mg/kg
[9] = rat, dosed as prodrug, 10 mg/kg equivalent of Base Structure, analyte Prodrug, Average
[10] = rat, dosed as prodrug, 10 mg/kg equivalent of Base Structure, analyte Prodrug, Combined (average ± std. dev.)
[11] = rat, dosed as prodrug, 10 mg/kg equivalent of Base Structure, analyte Prodrug, individual animals, 10 mg/kg
[12] = +GF120918 (10 μM), 10 μM compound

## CCCCCC(=O)NC(Cc1ccc(OP(=O)(OCCN(C)C)OCCN(C)C)cc1)C(=O)NC(C(=O)NCCCCCC(N)=O)C(C)CC (stereo not drawn) [Compound A18]
[1]; +Pancreatin (1%)
  SIF Stability (pH 6.8) Half-Life (min): 39.4 min
  SIF Stability (pH 6.8) 0 min: 100%
  SIF Stability (pH 6.8) 60 min: 40%
  SIF Stability (pH 6.8) 120 min: 12%
  SIF Stability (pH 6.8) 240 min: 25%
[1]; −Pancreatin
  SIF Stability (pH 6.8) Half-Life (min): 30.2 min
  SIF Stability (pH 6.8) 0 min: 100%
  SIF Stability (pH 6.8) 60 min: 25%
  SIF Stability (pH 6.8) 120 min: 17%
  SIF Stability (pH 6.8) 240 min: 8%
[2]; +Pepsin (0.32%)
  SGF Stability (pH 1.2) Half-Life (min): 46.4 min
  SGF Stability (pH 1.2) 0 min: 100%
  SGF Stability (pH 1.2) 60 min: 52%
  SGF Stability (pH 1.2) 120 min: 17%
  SGF Stability (pH 1.2) 240 min: 18%
[2]; −Pepsin
  SGF Stability (pH 1.2) Half-Life (min): 42.6 min
  SGF Stability (pH 1.2) 0 min: 100%
  SGF Stability (pH 1.2) 60 min: 51%
  SGF Stability (pH 1.2) 120 min: 14%
  SGF Stability (pH 1.2) 240 min: 15%
[3]; [4]
  AUC0-24: 4.1 ± 3.8 ng·h/mL
  AUC0-inf (ng · h/mL): 6.8 ± 4^ ng · h/mL
  Cmax: 3.1 ± 2.5 ng/mL
  Tmax: 0.2 ± 0.1 h
  half-life: 3.5 ± 2.6 h
[3]; [5]
  AUC0-24: 4.9 ± 2.6 ng·h/mL
  Cmax: 3.8 ± 0.1 ng/mL
  Tmax: 1.5 ± 0.7 h
[3]; [6]
  AUC 0-inf_obs: 6.838 ng·h/mL
  AUC 0-t: 4.14 ng·h/mL
  AUMC 0-inf_obs: 46.7 ng/ml * h^2
  Cl/F_obs: 1.944 (mg/kg)/(ng/ml)/h
  Cmax: 3.14 ng/mL
  Lambda_z: 0.523 h⁻¹
  MRT 0-inf_obs: 5.185 h
  Tlag: 0 h
  Tmax: 0.165 h
  Vz/F_obs: 6.707 (mg/kg)/(ng/ml)
  t1/2: 3.49 h
[3]; [7]
  AUC 0-inf_obs: 6.8 ± 4 ng·h/mL
  AUC 0-t: 4.1 ± 3.8 ng·h/mL
  AUMC 0-inf_obs: 46.7 ± 47.2 ng/ml * h^2
  Cl/F_obs: 1.9 ± 1.1 (mg/kg)/(ng/ml)/h
  Cmax: 3.1 ± 2.5 ng/mL
  Lambda_z: 0.5 ± 0.7 h⁻¹
  MRT 0-inf_obs: 5.2 ± 3.9 h
  Tlag: 0 ± 0 h
  Tmax: 0.2 ± 0.1 h
  Vz/F_obs: 6.7 ± 3.2 (mg/kg)/(ng/ml)
  t1/2: 3.5 ± 2.6 h
[3]; rat, dosed as prodrug, 10 mg/kg equivalent of Base Structure, analyte Parent (Base Structure), individual animals
  Tlag: 0 h
[3]; [8]
  AUC 0-inf_obs: 3.49 ng·h/mL and 3.404 ng·h/mL and 9.232 ng·h/mL and 11.23 ng·h/mL
  AUC 0-t: 1.664 ng·h/mL and 3.218 ng·h/mL and 1.903 ng·h/mL and 9.777 ng·h/mL
  AUMC 0-inf_obs: 10.68 ng/ml * h^2 and 2.586 ng/ml * h^2 and 76.05 ng/ml * h^2 and 97.48 ng/ml * h^2
  Cl/F_obs: 2.866 (mg/kg)/(ng/ml)/h and 2.938 (mg/kg)/(ng/ml)/h and 1.083 (mg/kg)/(ng/ml)/h and 0.8908 (mg/kg)/(ng/ml)/h
  Cmax: 1.3 ng/mL and 3.37 ng/mL and 1.27 ng/mL and 6.62 ng/mL
  Lambda_z: 0.3303 h⁻¹ and 1.518 h⁻¹ and 0.1231 h⁻¹ and 0.1201 h⁻¹
  MRT 0-inf_obs: 3.06 h and 0.7598 h and 8.238 h and 8.683 h
  Tmax: 0.25 h (2×) and 0.08 h (2×)
  Vz/F_obs: 8.676 (mg/kg)/(ng/ml) and 1.935 (mg/kg)/(ng/ml) and 8.802 (mg/kg)/(ng/ml) and 7.417 (mg/kg)/(ng/ml)
  t1/2: 2.099 h and 0.4565 h and 5.632 h and 5.771 h
[3]; [9]
  AUC 0-t: 4.949 ng·h/mL
  Cmax: 3.76 ng/mL
  Tlag: 0 h
  Tmax: 1.5 h
[3]; [10]
  AUC 0-t: 4.9 ± 2.6 ng·h/mL
  Cmax: 3.8 ± 0.1 ng/mL
  Tlag: 0 ± 0 h
  Tmax: 1.5 ± 0.7 h
[3]; rat, dosed as prodrug, 10 mg/kg equivalent of Base Structure, analyte Prodrug, individual animals
  Tlag: 0 h
[3]; [11]
  AUC 0-t: 6.8 ng·h/mL and 3.099 ng·h/mL
  Cmax: 3.84 ng/mL and 3.68 ng/mL
  Tmax: 2 h and 1 h
Caco-2 cells
  Abs. Quotient: 0.54
Caco-2 cells; [12]
  Caco-2 Cells Permeability Recovery Rate: 90%
Caco-2 cells; −GF120918, 10 μM compound
  Caco-2 Cells Permeability Recovery Rate: 48%

## CCCCCC(=O)NC(Cc1ccc(OP(=O)(O)O)cc1)C(=O)N[C@H](C(=O)NCCCCCC(N)=O)C(C)CC.N.N (stereo partly drawn) [Compound A29] (Hexanoyl-[ξpY]-[Ile(3ξ)]-[Ahx]-NH2)
[1]; +Pancreatin (1%)
  SIF Stability (pH 6.8) Half-Life (min): Neg.
  SIF Stability (pH 6.8) 0 min: 100%
  SIF Stability (pH 6.8) 60 min: 94%
  SIF Stability (pH 6.8) 120 min: 98%
  SIF Stability (pH 6.8) 240 min: 104%
[1]; −Pancreatin
  SIF Stability (pH 6.8) Half-Life (min): Neg.
  SIF Stability (pH 6.8) 0 min: 100%
  SIF Stability (pH 6.8) 60 min: 96%
  SIF Stability (pH 6.8) 120 min: 97%
  SIF Stability (pH 6.8) 240 min: 103%
[2]; +Pepsin (0.32%)
  SGF Stability (pH 1.2) Half-Life (min): 225.0 min
  SGF Stability (pH 1.2) 0 min: 100%
  SGF Stability (pH 1.2) 60 min: 86%
  SGF Stability (pH 1.2) 120 min: 63%
  SGF Stability (pH 1.2) 240 min: 49%
[2]; −Pepsin
  SGF Stability (pH 1.2) Half-Life (min): Neg.
  SGF Stability (pH 1.2) 0 min: 100%
  SGF Stability (pH 1.2) 60 min: 117%
  SGF Stability (pH 1.2) 120 min: 129%
  SGF Stability (pH 1.2) 240 min: 123%
[3]; [4]
  AUC0-24: 35.9 ± 27.6 ng·h/mL
  AUC0-inf: 48.6 ± 26.5 ng·h/mL
  Cmax: 39.7 ± 74.2 ng/mL
  Tmax (h): 2.1 ± 4^ h
  half-life: 15.7 ± 14.3 h
[3]; [5]
  Tmax: 0 h
Caco-2 cells
  Abs. Quotient: 0.83
Caco-2 cells; [12]
  Caco-2 Cells Permeability Recovery Rate: 76%
Caco-2 cells; −GF120918, 10 μM compound
  Caco-2 Cells Permeability Recovery Rate: 86%
